Data on 36 compounds can be found in the Deep4Chem optical property database.

The first series is described as follows: solvent given as SMILES. The note with it: in CN(C)C=O.
`O=c1[nH]nc(-c2ccc(/C=C/c3ccc(-c4n[nH]c(=O)o4)cc3)cc2)o1` gave an emission maximum of 408 nm.
`CN(C)CCNc1ccc([N+](=O)[O-])cc1[N+](=O)[O-]` returned an emission maximum of 406 nm.
On the same count and under the same terms, as for `O=C1C2=C3c4sccc4C=CN3C(=O)C2=C2c3sccc3C=CN12`, the figure is 618 nm.

The series is the same for the next values; noted with them: in CO.
As to `COc1cc(N(c2ccccc2)c2ccccc2)ccc1C=C(C#N)C#N`, the emission maximum was 562 nm.
On the same count and under the same terms, as for `CC1(C)Cc2c(c3ccccc3c3nc4ccccc4nc23)O1`, the figure is 529.1 nm; as for `O=C1c2ccccc2-c2c(-c3ccccc3)c(-c3ccccc3)c(-c3ccccc3)c3cccc1c23`, 521 nm.
Same read-out and setting: as for `Cc1nc2c(ccc3c2sc(/C=C/C=C/c2ccc(N(C)C)cc2)[n+]3C)s1`, the figure is 700 nm; as for `O=C([O-])c1ccccc1-c1c2cc(I)c(=O)c(I)c-2oc2c(I)c([O-])c(I)cc12`, 545 nm; as for `C(/C=C/C1=[NH+]c2cccc3cccc1c23)=c1/[nH]c2cccc3cccc1c32`, 651 nm.
On the same count and under the same terms, as for `CCOC(=O)CCOc1ccc(C(c2c(C)[nH]c3ccccc23)c2c(C)[nH]c3ccccc23)cc1OC`, the figure is 350 nm; as for `CN(C)CCNc1ccc([N+](=O)[O-])cc1[N+](=O)[O-]`, 389 nm; as for `CCN(CC)c1ccc(-c2nc3c(c4c2-c2ccc(C#N)cc2CC4)-c2ccc(C#N)cc2CC3)cc1`, 525 nm.
With `COc1ccc2c(c1)c1c(OC)c3ccccc3c(OC)c1n2C`, the emission maximum was 441 nm.

The series is the same for the next values; noted with them: in CS(C)=O.
With `COc1ccc(/C=C/c2nc(/C=C/c3ccc(N(c4ccccc4)c4ccccc4)cc3)cc(/C=C/c3ccc(N(c4ccccc4)c4ccccc4)cc3)n2)cc1`, the emission maximum was determined as 584 nm.
On the same count and under the same terms, as for `CN(C)CCNc1ccc([N+](=O)[O-])cc1[N+](=O)[O-]`, the figure is 417 nm; as for `CCN(CC)c1ccc(-c2nc3c(c4c2-c2ccc(C#N)cc2CC4)-c2ccc(C#N)cc2CC3)cc1`, 541 nm; as for `O=C1CC(=O)Nc2ccccc2N1`, 337 nm.

The same series, now with this note: in Cc1ccccc1.
Compound `COc1cc(N(c2ccccc2)c2ccccc2)ccc1C=C(C#N)C#N` came in with an emission maximum of 525 nm.
Consider `c1ccc2c(c1)CC1(C2)c2cc(N3c4ccccc4Sc4ccccc43)ccc2-c2ccc(N3c4ccccc4Sc4ccccc43)cc21`, for which the emission maximum was 495 nm.
`Cc1ccc2c(c1)C(c1ccccc1)(c1ccccc1)c1cc(C)ccc1N2c1ccc2c(c1)N(c1ccccc1)c1ccccc1B2c1c(C(C)C)cc(C(C)C)cc1C(C)C` showed an emission maximum of 449 nm.
Same read-out and setting: in the case of `CC(C)(C)c1ccc2c(c1)c1cc(C(C)(C)C)cc3c1n2-c1cc(-c2ccccc2F)cc2c1B3c1cc(C(C)(C)C)cc3c4cc(C(C)(C)C)ccc4n-2c13` it was 499.76 nm; in that of `COc1ccc(/C=C/c2nc(/C=C/c3ccc(N(c4ccccc4)c4ccccc4)cc3)cc(/C=C/c3ccc(N(c4ccccc4)c4ccccc4)cc3)n2)cc1`, 480 nm; in that of `CCCCN1c2ccccc2Sc2cc(/C=C/c3nc4nc5ccccc5nc4s3)ccc21`, 621 nm.
Still for that read-out and setting: as for `CCCCCCc1ccc2c(/C=N/c3ccc(/N=C/c4c(O)ccc5cc(CCCCCC)ccc45)cc3)c(O)ccc2c1`, the figure is 546 nm; as for `CN(C)CCNc1ccc([N+](=O)[O-])cc1[N+](=O)[O-]`, 385 nm; as for `CCN(CC)c1ccc(-c2nc3c(c4c2-c2ccc(C#N)cc2CC4)-c2ccc(C#N)cc2CC3)cc1`, 474 nm.
The same measure, in the same setting: as for `COc1cc(OC)cc(C2=[O+][B-](F)(F)OC(c3cccs3)=C2)c1`, the figure is 502.25 nm.

The series is the same for the next values; noted with them: in ClC(Cl)Cl.
`COc1cc(N(c2ccccc2)c2ccccc2)ccc1C=C(C#N)C#N` displayed an emission maximum of 567 nm.
On the same count and under the same terms, as for `CCOC(=O)c1ccccc1-c1c2ccc(=[N+](CC)CC)cc-2oc2c1c(=O)oc1cc3c(cc12)CCCN3C`, the figure is 647 nm; as for `CC1(C)Cc2c(c3ccccc3c3nc4ccccc4nc23)O1`, 505.05 nm.
On the same count and under the same terms, as for `Cc1nc2c(ccc3c2sc(/C=C/C=C/c2ccc(N(C)C)cc2)[n+]3C)s1`, the figure is 696 nm; as for `CN1C(=CC2=C([O-])C(=Cc3oc4ccccc4[n+]3C)C2=C(C#N)C#N)Sc2ccccc21`, 682 nm.
`CN(C)CCNc1ccc([N+](=O)[O-])cc1[N+](=O)[O-]`: the emission maximum was determined as 389 nm.
Same read-out and setting: in the case of `O=C1C2=C3c4sccc4C=CN3C(=O)C2=C2c3sccc3C=CN12` it was 609 nm.

The series is the same for the next values; noted with them: in ClCCCl.
Compound `CCCCCCCCCCCCCCCCOC(=O)c1ccc(N(c2ccccc2)c2ccccc2)cc1` had an emission maximum of 450 nm.

The series is the same for the next values; noted with them: in ClCCl.
Turning to `COc1cc(N(c2ccccc2)c2ccccc2)ccc1C=C(C#N)C#N`, the emission maximum is listed as 590 nm.
Still for that read-out and setting: as for `c1ccc(-c2ccc(-c3cc(-c4ccccn4)nc(-c4ccccn4)c3)cc2)cc1`, the figure is 360 nm; as for `COC(=O)c1c(-c2cc3ccccc3oc2=O)nn(-c2cccc(C)c2)c1C(=O)OC`, 401 nm.
Consider `CCOC(=O)c1ccccc1-c1c2ccc(=[N+](CC)CC)cc-2oc2c1oc1cc(N)ccc12`, for which the emission maximum is 627 nm.
On the same count and under the same terms, as for `CC(=O)c1nc(-c2ccc(N(C)C)cc2)oc1C`, the figure is 373 nm.
Turning to `Cc1cn2cc(-c3ccc([N+](=O)[O-])cc3)[n-][n+]2c1`, the emission maximum is 575 nm.
Still for that read-out and setting: in the case of `CC[C@H](C)COc1ccc(C2=C3C(C)=CC(C)=[N+]3[B-](F)(F)n3c(C)cc(C)c32)cc1` it was 520 nm; in that of `CC(C)[Si](C#Cc1c2cc3ccccc3cc2c(C#C[Si](C(C)C)(C(C)C)C(C)C)c2nc3cc4c(cc3nc12)C1c2ccccc2C4c2ccccc21)(C(C)C)C(C)C`, 718 nm; in that of `COc1ccc(/C=C/c2nc(/C=C/c3ccc(N(c4ccccc4)c4ccccc4)cc3)cc(/C=C/c3ccc(N(c4ccccc4)c4ccccc4)cc3)n2)cc1`, 543 nm.
Still for that read-out and setting: in the case of `CCCCN1c2ccccc2Sc2cc(/C=C/c3nc4nc5ccccc5nc4s3)ccc21` it was 729 nm; in that of `CCCCCCc1ccc2c(/C=N/c3ccc(/N=C/c4c(O)ccc5cc(CCCCCC)ccc45)cc3)c(O)ccc2c1`, 546 nm.
The same measure, in the same setting: as for `C(=C\c1ccc(-c2cccc3ccccc23)s1)/c1ccc(-c2cccc3ccccc23)s1`, the figure is 475 nm; as for `CN(C)CCNc1ccc([N+](=O)[O-])cc1[N+](=O)[O-]`, 393 nm.
As to `CCN(CC)c1ccc(-c2nc3c(c4c2-c2ccc(C#N)cc2CC4)-c2ccc(C#N)cc2CC3)cc1`, the emission maximum is on record as 493 nm.
Still for that read-out and setting: as for `COc1cc(OC)cc(C2=[O+][B-](F)(F)OC(c3cccs3)=C2)c1`, the figure is 567 nm; as for `Cc1ccc2c(c1)B(c1c(C(C)C)cc(C(C)C)cc1C(C)C)c1cc(C)cc3c1N2c1ccc(C)cc1B3c1c(C(C)C)cc(C(C)C)cc1C(C)C`, 482 nm.
The same measure, in the same setting: as for `COc1ccc(-c2ccc3c(c2)C=Cc2cc(-c4ccc(OC)cc4)ccc2[Si]3(C)C)cc1`, the figure is 391 nm; as for `COc1ccc2c(c1)c1c(OC)c3ccccc3c(OC)c1n2C`, 443 nm; as for `Cc1ccc(-c2cc(C)[o+]c(C)c2)cc1`, 417 nm.

The same series, now with this note: in O.
`CCOC(=O)c1ccccc1-c1c2ccc(=[N+](CC)CC)cc-2oc2c1c(=O)oc1cc3c(cc12)CCCN3C` came in with an emission maximum of 666 nm.
In the case of `CCOC(=O)c1ccccc1-c1c2ccc(=[N+](CC)CC)cc-2oc2c1oc1cc(N)ccc12`, the emission maximum was found to be 645 nm.
Still for that read-out and setting: in the case of `O=C([O-])c1ccccc1-c1c2cc(I)c(=O)c(I)c-2oc2c(I)c([O-])c(I)cc12` it was 534 nm.
The same measure, in the same setting: in the case of `O=C(O)CCCCCn1c2ccccc2c(=O)c2cc(F)ccc21` it was 432 nm.
The same measure, in the same setting: in the case of `CCOC(=O)CCOc1ccc(C(c2c(C)[nH]c3ccccc23)c2c(C)[nH]c3ccccc23)cc1OC` it was 351 nm.

Still in this series, the particulars now being: in O=P(c1ccccc1)(c1ccccc1)c1ccc2oc3ccc(P(=O)(c4ccccc4)c4ccccc4)cc3c2c1.
On to `Cc1ccc2c(c1)C(c1ccccc1)(c1ccccc1)c1cc(C)ccc1N2c1ccc2c(c1)N(c1ccccc1)c1ccccc1B2c1c(C(C)C)cc(C(C)C)cc1C(C)C`, for which the emission maximum is reported as 465 nm.

The series is the same for the next values; noted with them: in OCCOCCO.
`OC1(c2ccc(-c3cccs3)s2)CCC(c2ccccc2)CC1` (centres undefined) showed an emission maximum of 384 nm.

Still in this series, the particulars now being: in c1ccccc1.
Compound `CC1(C)Cc2c(c3ccccc3c3nc4ccccc4nc23)O1` displayed an emission maximum of 483.09 nm.
The same measure, in the same setting: as for `CCCCCCCCCCCCCCCCOC(=O)c1ccc(N(c2ccccc2)c2ccccc2)cc1`, the figure is 412 nm.

Staying with this series, now noted: in c1ccncc1.
For `OC1(c2ccc(-c3cccs3)s2)CCC(c2ccccc2)CC1` (centres undefined), the emission maximum is recorded as 385 nm.
